Data: patent publication US6544989B2, “Benzazoles: benzoxazole, benzthiazole and benzimidazole derivatives” (Syngenta Limited, priority 1998, dated 2003)
Where two headings read alike, the source gives them in different places. Marks after values point to notes of the source that are not given here.

What was measured:
Meloidogyne incognita = assay: Nematode test, J2 infective juveniles of Meloidogyne incognita, mortality; conditions: 12.5 ppm; J2 infective juveniles suspended in solution; mortality after three days
Musca domestica = conditions: 500 ppm by weight; knockdown assessed 15 minutes after treatment
Plasmopara viticola = assay: Fungicidal test, Plasmopara viticola (PLASVI) on vines, PRCO; assay type: in vivo
Uncinula necator = assay: Fungicidal test, Uncinula necator (UNCINE) on vines, PRCO; assay type: in vivo; conditions: METHOD 2 (unbanded)
Rhizoctonia solani = assay: Fungicidal test, Rhizoctonia solani (RHIZSO) on rice, PRCO; assay type: in vivo; conditions: METHOD 2 (unbanded)
Septoria nodorum = assay: Fungicidal test, Septoria nodorum (LEPTNO) on wheat, PRCO; assay type: in vivo
Puccinia recondita = assay: Fungicidal test, Puccinia recondita (PUCCRT) on wheat, PRCO; assay type: in vivo
Venturia inaequalis = assay: Fungicidal test, Venturia inaequalis (VENTIN) on apples, PRCO; assay type: in vivo; conditions: METHOD 2 (unbanded)
[1] = system: Erysiphe graminis f.sp. tritici; assay: Fungicidal test, Erysiphe graminis f.sp. tritici (ERYSGT) on wheat, PRCO; assay type: in vivo; conditions: for ERYSGT 1 d Prot/Foir PRCO: METHOD 2 (unbanded); for ERYSGT 6 hr Prot/Foir PRCO: METHOD 1 (values marked *)
Pyricularia oryzae = assay type: in vivo; conditions: METHOD 2 (unbanded)
[2] = system: Phytophthora infestans lycopersici; assay type: in vivo

| SMILES | MELGIN = Meloidogyne incognita, grading of mortality (score) (Meloidogyne incognita) | MUSCDO AC = Musca domestica (knockdown), score (Musca domestica) | PLASVI 1 d Prot/Foir PRCO (Plasmopara viticola; METHOD 2 (unbanded)) | UNCINE 1 d Prot/Foir PRCO (Uncinula necator) | RHIZSO 1 d Prot/Foir PRCO (Rhizoctonia solani) | LEPTNO 1 d Prot/Foir PRCO (Septoria nodorum; METHOD 2 (unbanded)) | PUCCRT 1 d Prot/Foir PRCO (Puccinia recondita; METHOD 2 (unbanded)) | VENTIN 1 d Prot/Foir PRCO (Venturia inaequalis) | ERYSGT 1 d Prot/Foir PRCO [1] | PYRIOR 1 d Prot/Foir PRCO (Pyricularia oryzae) | PHYTIN 1 d Prot/Foir PRCO ([2]; METHOD 2 (unbanded)) | PHYTIN 1 d Prot/Foir PRCO ([2]; METHOD 1 (values marked *)) | PUCCRT 1 d Prot/Foir PRCO (Puccinia recondita; METHOD 1 (values marked *)) | PLASVI 1 d Prot/Foir PRCO (Plasmopara viticola; METHOD 1 (values marked *)) | LEPTNO 1 d Prot/Foir PRCO (Septoria nodorum; METHOD 1 (values marked *)) | ERYSGT 6 hr Prot/Foir PRCO [1] |
| --- | --- | --- | --- | --- | --- | --- | --- | --- | --- | --- | --- | --- | --- | --- | --- | --- |
| CCc1nc2cc(CC(=O)Nc3snc(C)c3Cl)ccc2o1 [3(A3)] | 0 (0 indicates less than 40% mortality) | 9 (9 indicates 80-100% mortality) | 14 | 27 | 0 | 33 | 98 | 67 | 4 | – | – | – | – | – | – | – |
| Cc1nsc(NC(=O)Cc2ccc3oc(C(C)C)nc3c2)c1Cl [8(A3)] | 0 (0 indicates less than 40% mortality) | 9 (9 indicates 80-100% mortality) | 6 | 40 | 0 | 0 | 90 | 26 | 20 | – | – | – | – | – | – | – |
| CCC(C)c1nc2cc(CC(=O)Nc3snc(C)c3Cl)ccc2o1 (stereo not shown) [10(A3)] | 0 (0 indicates less than 40% mortality) | 5 (5 indicates 40-79% mortality) | 87 | 96 | 0 | 28 | 100 | 40 | 98 | 77 | 100 | – | – | – | – | – |
| CCC(CC)c1nc2cc(CC(=O)Nc3snc(C)c3Cl)ccc2o1 [13(A3)] | 0 (0 indicates less than 40% mortality) | 9 (9 indicates 80-100% mortality) | 100 | 100 | 19 | 58 | 100 | 53 | 100 | 96 | 93 | – | – | – | – | – |
| Cc1nsc(NC(=O)Cc2ccc3oc(CC(C)C)nc3c2)c1Cl [14(A3)] | 0 (0 indicates less than 40% mortality) | 9 (9 indicates 80-100% mortality) | 89 | 98 | 12 | 28 | 97 | 10 | 90 | 90 | 100 | – | – | – | – | – |
| Cc1nsc(NC(=O)Cc2ccc3nc(CC(C)(C)C)oc3c2)c1Cl [15(A23)] | 0 (0 indicates less than 40% mortality) | 0 (0 indicates less than 40% mortality) | – | 100 | 0 | 83 | 98 | 100 | 62 | 80 | 100 | – | – | – | – | – |
| Cc1nsc(N(C)C(=O)Cc2ccc3oc(CC(C)(C)C)nc3c2)c1Cl [15(B3)] | 0 (0 indicates less than 40% mortality) | 0 (0 indicates less than 40% mortality) | 79 | 100 | 29 | −2 | 15 | 5 | 75 | 69 | 99 | – | – | – | – | – |
| Cc1nsc(NC(=S)Cc2ccc3oc(CC(C)(C)C)nc3c2)c1Cl [15(V3)] | 0 (0 indicates less than 40% mortality) | 0 (0 indicates less than 40% mortality) | – | 100 | 0 | −2 | 100 | 10 | 87 | 100 | 100 | – | – | – | – | – |
| CC(C)=Cc1nc2cc(CC(=O)Nc3snc(C)c3Cl)ccc2o1 [46(A3)] | 0 (0 indicates less than 40% mortality) | 5 (5 indicates 40-79% mortality) | 99 | 100 | 0 | 88 | 100 | 84 | 97 | 92 | – | – | – | – | – | – |
| CC=C(C)c1nc2cc(CC(=O)Nc3snc(C)c3Cl)ccc2o1 [47(A3)] | 0 (0 indicates less than 40% mortality) | 0 (0 indicates less than 40% mortality) | 92 | 98 | 0 | 63 | 99 | 37 | 86 | 88 | – | – | – | – | – | – |
| Cc1nsc(NC(=O)Cc2ccc3oc(COc4ccccc4)nc3c2)c1Cl [140(A3)] | 0 (0 indicates less than 40% mortality) | 0 (0 indicates less than 40% mortality) | 63 | 99 | 0 | 13 | 96 | 70 | 44 | – | – | – | – | – | – | – |
| CSc1nc2cc(CC(=O)Nc3snc(C)c3Cl)ccc2o1 [220(A3)] | 0 (0 indicates less than 40% mortality) | 5 (5 indicates 40-79% mortality) | 6 | −5 | 0 | 17 | – | 11 | 12 | – | – | 100* | 100* | – | – | – |
| CCSc1nc2cc(CC(=O)Nc3snc(C)c3Cl)ccc2o1 [221(A3)] | 0 (0 indicates less than 40% mortality) | 9 (9 indicates 80-100% mortality) | 84 | 23 | 0 | 20 | 99 | 25 | 50 | 93 | 99 | – | – | – | – | – |
| Cc1nsc(NC(=O)Cc2ccc3oc(SC(C)C)nc3c2)c1Cl [223(A3)] | 0 (0 indicates less than 40% mortality) | 0 (0 indicates less than 40% mortality) | 55 | 30 | 0 | 12 | 99 | 60 | 73 | 63 | 93 | – | – | – | – | – |
| Cc1nsc(NC(=O)Cc2ccc3oc(SC(C)(C)C)nc3c2)c1Cl [224(A3)] | 0 (0 indicates less than 40% mortality) | 0 (0 indicates less than 40% mortality) | 99 | 91 | 0 | 16 | 98 | 60 | 88 | 91 | 100 | – | – | – | – | – |
| Cc1nsc(NC(=O)Cc2ccc3oc(-c4ccccc4)nc3c2)c1Cl [248(A3)] | 0 (0 indicates less than 40% mortality) | 0 (0 indicates less than 40% mortality) | – | 7 | 7 | – | – | 100 | – | – | – | 17* | 100* | 97* | 0* | 0* |
| Cc1nsc(NC(=O)Cc2ccc3oc(-c4ccc(C(C)(C)C)cc4)nc3c2)c1Cl [252(A3)] | 0 (0 indicates less than 40% mortality) | 0 (0 indicates less than 40% mortality) | 38 | 79 | 0 | −13 | 97 | −47 | 30 | 46 | – | – | – | – | – | – |
| Cc1nsc(NC(=O)Cc2ccc3oc(-c4ccc(Cl)cc4Cl)nc3c2)c1Cl [257(A3)] | 5 (5 indicates 40-79% mortality) | 0 (0 indicates less than 40% mortality) | – | 61 | 11 | – | – | 0 | – | – | – | 0* | 100* | 79* | 0* | 0* |
